# Data: US20240060133A1, “METHODS FOR IDENTIFICATION AND TREATMENT OF BLEEDING IN ANIMALS” (WASHINGTON STATE UNIVERSITY, priority 2021, published 2024)
# Assays:
# [1] = system: delayed postoperative bleeding in greyhounds; conditions: 46 greyhounds, limb amputation for osteosarcoma, after introduction of the prophylactic treatment; cited from earlier work
# [2] = system: delayed postoperative bleeding in Scottish deerhounds; test: Scottish deerhound cases with delayed postoperative bleeding (health survey and veterinary records); type: in vivo, Scottish deerhound dogs; conditions: for hematocrit and platelet counts: SDH-2, 750 mg intravenous infusion; for hematocrit: SDH-4, continuous intravenous infusion plus transfusions of whole blood and plasma
# Excerpt: For the instant example, Scottish deerhounds with delayed postoperative bleeding and matched controls were identified through a survey distributed to members of the Scottish Deerhound Club of America. A subsection of this survey requested information regarding the surgical history of the dogs, occurrence of postoperative bleeding complications, and perioperative administration of antifibrinolytic drugs (EACA or tranexamic acid). A diagnosis of delayed postoperative bleeding, defined as unexpected bleeding from a surgical wound starting 1 to 4 days after the procedure, was based on review of the owner's description of the event, the veterinary medical record (if available), and therapeutic response to administration of antifibrinolytic drugs (if used). Dogs were excluded if the bleeding event occurred on the same day of surgery, or after more than 4 days following surgery.
# The instant example utilizes the methods described in Example 1 to identify delayed postoperative bleeding cases in canines and controls. Completed health surveys from the owners of 260 Scottish deerhounds were reviewed to identify delayed postoperative bleeding cases and controls. Of the original 260 dogs evaluated, 105 dogs (40%) were identified that had undergone at least one surgical procedure, while 21 dogs (8%) had received two or more surgeries. Nine of 105 dogs (9%) with a surgical history were reported to have experienced postoperative bleeding and/or excessive bruising at least once after a surgical procedure. Of these, bleeding into the abdomen was first diagnosed within 8 hours after surgery in two dogs, while bleeding and/or bruising was not evident until at least the morning after surgery in the remaining 7 dogs. These latter 7 dogs were considered delayed postoperative bleeding cases and all had DNA samples available for case-control analysis. Of the 96 dogs that had undergone surgery without evidence for postoperative bleeding, 25 dogs (26%) had received prophylactic treatment with EACA, while 71 dogs (74%) had not received any antifibrinolytic drug. These latter 71 dogs were considered delayed postoperative bleeding controls. Of the 71 control dogs, 55 dogs had DNA samples available for case-control genetic analysis.
# Case information for the seven dogs (SDH-1 to SDH-7) that met the inclusion/exclusion criteria for delayed postoperative bleeding are shown in Table 1.
# canine plasmin = target: T1, canine plasmin (Canis lupus familiaris, UniProt P80009); test: Plasmin inhibition assay (microplate-based colorimetric kinetic assay); type: biochemical; conditions: substrate D-VLK-pNA, 37° C., preliminary studies, FIG. 1, read-out: IC50, concentration-dependent inhibition of plasmin activity
# T1 construct: purchased Molecular Innovation, Novi, MI DPLM
# Description: A microplate-based colorimetric kinetic assay was developed and validated to measure the potency of inhibition of canine plasmin by plasma based on a previously published method. Briefly, 2 μL of canine plasma diluted to 50 μL in phosphate-buffered saline (PBS) was added on ice to 96-well UV clear nonbinding plates (Cat. #655901, Greiner Bio-One, Monroe, NC). Then, 50 μL of canine plasmin (Cat. #DPLM, Molecular Innovation, Novi, MI) at 100 nM concentration in 50 μL PBS was added, mixed by pipetting, and incubated at 37° C. for 5 min. To this, 100 μL of prewarmed plasmin substrate (D-VLK-pNA, Molecular Innovation, Novi, MI) at 200 μM concentration in PBS was added, mixed, and immediately placed in a colorimetric plate reader (SpectraMax i3, Molecular Devices, San Jose, CA) set at 37° C. Absorbance at 405 nm was then monitored in each well over the next 5 minutes. Plasmin hydrolysis activity for each well was calculated from the fitted linear slope of the absorbance versus time curve over 5 minutes.
# Preliminary studies confirmed concentration-dependent inhibition of plasmin activity by the antifibrinolytic aprotinin (Cat. #A1153, Sigma Aldrich, St Louis, MO) with an IC50 of approximately 500 nM (see FIG. 1). Plasma collected in sodium citrate and pooled from 2 male and 2 female beagle dogs was obtained from a commercial vendor (Biochemed Services, Winchester, VA). […]
# [3] = SDH-2, Day 1-evening (after aminocaproic acid), 750 mg intravenous infusion
# [4] = prophylactic antifibrinolytic given, individual dogs SDH-3 and SDH-6
# T1 sequence (P80009 104-333 limits assumed): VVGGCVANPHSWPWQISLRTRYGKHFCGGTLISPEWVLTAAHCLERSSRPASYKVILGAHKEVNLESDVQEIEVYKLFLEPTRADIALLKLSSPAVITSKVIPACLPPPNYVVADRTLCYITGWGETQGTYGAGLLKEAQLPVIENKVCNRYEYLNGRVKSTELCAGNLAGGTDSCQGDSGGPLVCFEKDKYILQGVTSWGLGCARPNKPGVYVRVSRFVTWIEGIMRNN
# T1 sequence (P80009 with tags, fused parts or gaps partner limits assumed): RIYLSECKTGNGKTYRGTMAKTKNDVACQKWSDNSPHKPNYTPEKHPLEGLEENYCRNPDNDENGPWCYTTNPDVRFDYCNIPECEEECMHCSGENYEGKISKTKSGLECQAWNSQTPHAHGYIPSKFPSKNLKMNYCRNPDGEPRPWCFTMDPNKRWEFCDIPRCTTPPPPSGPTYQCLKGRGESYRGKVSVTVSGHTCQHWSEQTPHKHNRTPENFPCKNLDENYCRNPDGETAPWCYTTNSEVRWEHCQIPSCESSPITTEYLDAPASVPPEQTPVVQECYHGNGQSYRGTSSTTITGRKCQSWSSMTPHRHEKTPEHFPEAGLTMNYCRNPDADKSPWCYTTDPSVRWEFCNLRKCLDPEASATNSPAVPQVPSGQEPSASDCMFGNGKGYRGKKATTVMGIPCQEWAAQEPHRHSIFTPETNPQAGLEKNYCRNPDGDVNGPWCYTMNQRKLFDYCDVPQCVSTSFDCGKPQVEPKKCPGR
molecule,measurement,setting,value
"NCCCCCC(=O)O [EACA, 6-aminohexanoic acid]",incidence of bleeding,[1],16%
same,hematocrit and platelet counts,[2]; by Day 5,within their normal range
same,hematocrit and platelet counts,[2]; next morning (Day 2),significantly increased
same,Hematocrit (%),[2]; [3],34.4%
same,Platelet count (×10^9/L),[2]; [3],31 ×10^9/L
same,Hematocrit (%),"[2]; SDH-2, Day 2",41.7%
same,Platelet count (×10^9/L),"[2]; SDH-2, Day 2",125 ×10^9/L
same,Hematocrit (%),"[2]; SDH-2, Day 5",51.9%
same,Platelet count (×10^9/L),"[2]; SDH-2, Day 5",371 ×10^9/L
same,Hematocrit (%),"[2]; SDH-2, Week 5",50.4%
same,Platelet count (×10^9/L),"[2]; SDH-2, Week 5",276 ×10^9/L
same,bleeding after therapeutic treatment,"[2]; SDH-3, castration, 500 mg orally every 8 hours for 5 days, with fluids, antibiotics, vitamin K",No further bleeding was observed
same,bruising or delayed postoperative bleeding after prophylactic treatment,"[2]; SDH-3, splenectomy, 500 mg intravenous infusion during procedure then 500 mg oral every 8 hours for 5 days",No excessive bruising or delayed postoperative bleeding were observed
same,hematocrit,[2]; after one month,60%
same,hematocrit,[2]; at discharge after 5 days (15% before),36%
same,bleeding after therapeutic treatment,"[2]; SDH-6, sebaceous cyst removal, orally administered after bleeding",the bleeding resolved
same,postoperative bleeding or bruising after prophylactic treatment,"[2]; SDH-6, skin abscess surgery, pre-operative oral dose",No postoperative bleeding or bruising was observed
same,bleeding after drug administration,"[2]; dogs with delayed postoperative bleeding, EACA oral or injectable",stopped within hours
same,Delayed bleeding?,[2]; [4],No
same,Outcome,[2]; [4],No complications
same,Outcome,"[2]; therapeutic antifibrinolytic given after delayed bleeding, individual dogs SDH-2 to SDH-6",Responded to antifibrinolytic
aprotinin,IC50,canine plasmin,~500 nM
